From US8383094B2, “Hepatitis C virus inhibitors” (Bristol-Myers Squibb Company, priority 2008, dated 2013)
Where two headings read alike, the source gives them in different places.

System: HCV 1b genotype
Test: HCV Replicon assay (HCV-neo replicon cells, wild-type)
Format: cell-based
Conditions: HCV 1b genotype replicon, read-out: 1b EC50 (in μM or range)
[1] = Hepatitis C virus, range class A-D

| SMILES | EC50 [1] | further results |
| --- | --- | --- |
| O=C(Nc1ccc(C#Cc2ccc(NC(=O)[C@@H]3CCCN3C(=O)CC3CC3)cc2)cc1)[C@@H]1CCCN1C(=O)CC1CC1 [Example D37, (2S,2′S)-N,N′-(1,2-ethynediyldi-4,1-phenylene)bis(1-(cyclopropylacetyl)-2-pyrrolidinecarboxamide)] | 4.57 to 99 nM | – |
| O=C(Nc1ccc(C#Cc2ccc(NC(=O)[C@@H]3CCCN3C(=O)OCc3ccccc3)cc2)cc1)C1CCC1 [Example D20, Benzyl (2S)-2-((4-((4-((cyclobutylcarbonyl)amino)phenyl)ethynyl)phenyl)carbamoyl)-1-pyrrolidinecarboxylate] | 100 to 999 nM | – |
| CN(C)[C@H](Cc1ccccc1)C(=O)N1CCC[C@H]1C(=O)Nc1ccc(C#Cc2ccc(NC(=O)[C@@H]3CCCN3C(=O)[C@@H](Cc3ccccc3)N(C)C)cc2)cc1 [VN28, (2S,2′S)-N,N′-(1,2-ethynediyldi-4,1-phenylene)bis(1-((2R)-2-(dimethylamino)-3-phenylpropanoyl)-2-pyrrolidinecarboxamide)] | < 4.57 nM | – |
| CN(C)[C@@H](C(=O)N1CCC[C@H]1C(=O)Nc1ccc(C#Cc2ccc(NC(=O)[C@@H]3CCCN3C(=O)[C@@H](c3ccccc3)N(C)C)cc2)cc1)c1ccccc1 [VN23, (2S,2′S)-N,N′-(1,2-ethynediyldi-4,1-phenylene)bis(1-((2R)-2-(dimethylamino)-2-phenylacetyl)-2-pyrrolidinecarboxamide)] | < 4.57 nM | – |
| CN1CCN(C(C(=O)N2CCC[C@H]2C(=O)Nc2ccc(C#Cc3ccc(NC(=O)[C@@H]4CCCN4C(=O)C(c4ccccc4)N4CCN(C)CC4)cc3)cc2)c2ccccc2)CC1 (stereo partly drawn) [VN43, (2S,2′S)-N,N′-(1,2-ethynediyldi-4,1-phenylene)bis(1-((4-methyl-1-piperazinyl)(phenyl)acetyl)-2-pyrrolidinecarboxamide)] | – | EC50 (Hepatitis C virus): 0.015 nM |
| CC(=O)N1CCN(C(C(=O)N2CCC[C@H]2C(=O)Nc2ccc(C#Cc3ccc(NC(=O)[C@@H]4CCCN4C(=O)C(c4ccccc4)N4CCN(C(C)=O)CC4)cc3)cc2)c2ccccc2)CC1 (stereo partly drawn) [VN48, (2S,2′S)-N,N′-(1,2-ethynediyldi-4,1-phenylene)bis(1-((4-acetyl-1-piperazinyl)(phenyl)acetyl)-2-pyrrolidinecarboxamide)] | < 4.57 nM | – |
| O=C(Nc1ccc(C#Cc2ccc(NC(=O)[C@@H]3CCCN3C(=O)Cc3cccnc3)cc2)cc1)[C@@H]1CCCN1C(=O)Cc1cccnc1 [Example D39, (2S,2′S)-N,N′-(1,2-ethynediyldi-4,1-phenylene)bis(1-(3-pyridinylacetyl)-2-pyrrolidinecarboxamide)] | < 4.57 nM | – |
| CC(=O)N1CCC[C@H]1C(=O)Nc1ccc(C#Cc2ccc(NC(=O)[C@@H]3CCCN3C(=O)c3nccc4ccccc34)nc2)cc1 [Example D56, (2S)-1-Acetyl-N-(4-((6-((((2S)-1-(1-isoquinolinylcarbonyl)-2-pyrrolidinyl)carbonyl)amino)-3-pyridinyl)ethynyl)phenyl)-2-pyrrolidinecarboxamide] | – | EC50 (Hepatitis C virus): 2090 nM |
| CC(=O)N1CCC[C@H]1C(=O)Nc1ccc(C#Cc2ccc(NC(=O)[C@@H]3CCCN3C(=O)Cc3ccccc3)nc2)cc1 [Example D55, (2S)-1-Acetyl-N-(4-((6-((((2S)-1-(phenylacetyl)-2-pyrrolidinyl)carbonyl)amino)-3-pyridinyl)ethynyl)phenyl)-2-pyrrolidinecarboxamide] | 100 to 999 nM | – |
| C[C@@](O)(C(=O)N1CCC[C@H]1C(=O)Nc1ccc(C#Cc2ccc(NC(=O)[C@@H]3CCCN3C(=O)[C@@](C)(O)c3ccccc3)cc2)cc1)c1ccccc1 [VN1, (2S,2′S)-N,N′-(1,2-ethynediyldi-4,1-phenylene)bis(1-((2S)-2-hydroxy-2-phenylpropanoyl)-2-pyrrolidinecarboxamide)] | < 4.57 nM | – |
| CNC(C(=O)N1CCC[C@H]1C(=O)Nc1ccc(C#Cc2ccc(NC(=O)[C@@H]3CCCN3C(=O)C(NC)c3ccccc3)cc2)cc1)c1ccccc1 (stereo partly drawn) [VN30, (2S,2′S)-N,N′-(1,2-ethynediyldi-4,1-phenylene)bis(1-((methylamino)(phenyl)acetyl)-2-pyrrolidinecarboxamide)] | < 4.57 nM | – |
| CC(=O)N1CCC[C@H]1C(=O)Nc1ccc(C#Cc2ccc(NC(=O)C3CCN(C(=O)OCc4ccccc4)C3)cc2)cc1 (stereo partly drawn) [Example D4, Benzyl 3-((4-((4-((1-acetyl-L-prolyl)amino)phenyl)ethynyl)phenyl)carbamoyl)-1-pyrrolidinecarboxylate] | 1000 to 10000 nM | – |
| O=C(Nc1ccc(C#Cc2ccc(NC(=O)[C@@H]3CCCN3C(=O)c3nc(Cl)cc4ccccc34)cc2)cc1)[C@@H]1CCCN1C(=O)Cc1cccnc1 [Example D40, (2S)-1-((3-Chloro-1-isoquinolinyl)carbonyl)-N-(4-((4-((((2S)-1-(3-pyridinylacetyl)-2-pyrrolidinyl)carbonyl)amino)phenyl)ethynyl)phenyl)-2-pyrrolidinecarboxamide] | 4.57 to 99 nM | – |
| O=C(Nc1ccc(C#Cc2ccc(NC(=O)C3CC3)cc2)cc1)C1CC1 [Example D3, N,N′-(4,4′-(Ethyne-1,2-diyl)bis(4,1-phenylene))dicyclopropanecarboxamide] | 4.57 to 99 nM | – |
| O=C(Nc1ccc(C#Cc2ccc(NC(=O)[C@@H]3CCCN3C(=O)c3nc(Cl)cc4ccccc34)cc2)cc1)[C@@H]1CCCN1C(=O)c1nc(Cl)cc2ccccc12 [Example D31, (2S,2′S)-N,N′-(1,2-ethynediyldi-4,1-phenylene)bis(1-((3-chloro-1-isoquinolinyl)carbonyl)-2-pyrrolidinecarboxamide)] | 4.57 to 99 nM | – |
| CC[C@H](C(=O)N1CCC[C@H]1C(=O)Nc1ccc(C#Cc2ccc(NC(=O)[C@@H]3CCCN3C(=O)[C@@H](CC)c3ccccc3)cc2)cc1)c1ccccc1 [VN6, (2S,2′S)-N,N′-(1,2-ethynediyldi-4,1-phenylene)bis(1-((2S)-2-phenylbutanoyl)-2-pyrrolidinecarboxamide)] | 4.57 to 99 nM | – |
| CN(C)C1(C(=O)N2CCC[C@H]2C(=O)Nc2ccc(C#Cc3ccc(NC(=O)[C@@H]4CCCN4C(=O)C4(N(C)C)CCc5ccccc54)cc3)cc2)CCc2ccccc21 (stereo partly drawn) [VN41, (2S,2′S)-N,N′-(1,2-ethynediyldi-4,1-phenylene)bis(1-((1-(dimethylamino)-2,3-dihydro-1H-inden-1-yl)carbonyl)-2-pyrrolidinecarboxamide)] | < 4.57 nM | – |
| CCc1cccnc1C(=O)N1CCC[C@H]1C(=O)Nc1ccc(C#Cc2ccc(NC(=O)[C@@H]3CCCN3C(=O)c3ncccc3CC)cc2)cc1 [Example D36.4, (2S,2′S)-N,N′-(4,4′-(ethyne-1,2-diyl)bis(4,1-phenylene))bis(1-(3-ethylpicolinoyl)pyrrolidine-2-carboxamide)] | – | EC50 (range class A-D): 4.57 to 99 nM |
| CC(=O)N1CCN(C(C(=O)N2CCC[C@H]2C(=O)Nc2ccc(C#Cc3ccc(NC(=O)[C@@H]4CCCN4C(=O)C(c4ccccc4)N4CCN(C(C)=O)CC4)cc3)cc2)c2ccccc2)CC1 (stereo partly drawn) [VN49, (2S,2′S)-N,N′-(1,2-ethynediyldi-4,1-phenylene)bis(1-((4-acetyl-1-piperazinyl)(phenyl)acetyl)-2-pyrrolidinecarboxamide)] | – | EC50 (range class A-D): 4.57 to 99 nM |
| CN(C)C1(C(=O)N2CCC[C@H]2C(=O)Nc2ccc(C#Cc3ccc(NC(=O)[C@@H]4CCCN4C(=O)C4(N(C)C)Cc5ccccc5C4)cc3)cc2)Cc2ccccc2C1 [VN16, (2S,2′S)-N,N′-(1,2-ethynediyldi-4,1-phenylene)bis(1-((2-(dimethylamino)-2,3-dihydro-1H-inden-2-yl)carbonyl)-2-pyrrolidinecarboxamide)] | 4.57 to 99 nM | – |
| CCC(O)(C(=O)N1CCC[C@H]1C(=O)Nc1ccc(C#Cc2ccc(NC(=O)[C@@H]3CCCN3C(=O)C(O)(CC)c3ccccc3)cc2)cc1)c1ccccc1 (stereo partly drawn) [VN10, (2S,2′S)-N,N′-(1,2-ethynediyldi-4,1-phenylene)bis(1-(2-hydroxy-2-phenylbutanoyl)-2-pyrrolidinecarboxamide)] | < 4.57 nM | – |
| O=C(Nc1ccc(C#Cc2ccc(NC(=O)[C@@H]3CCCN3C(=O)Cc3ccccc3)nc2)cn1)[C@@H]1CCCN1C(=O)Cc1ccccc1 [Example D48, (2S,2′S)-N,N′-(1,2-ethynediyldi-5,2-pyridinediyl)bis(1-(phenylacetyl)-2-pyrrolidinecarboxamide)] | < 4.57 nM | – |
| CC(C)(C)O[C@@H]1C[C@@H](C(=O)Nc2ccc(C#Cc3ccc(NC(=O)[C@@H]4C[C@@H](OC(C)(C)C)CN4C(=O)OCc4ccccc4)cc3)cc2)N(C(=O)OCc2ccccc2)C1 [Example D8, Dibenzyl (2S,4R,2′S,4′R)-2,2′-(1,2-ethynediylbis(4,1-phenylenecarbamoyl))bis(4-tert-butoxy-1-pyrrolidinecarboxylate)] | 1000 to 10000 nM | – |
